Data as given in patent US6706705B1, “Quinazoline derivatives” (Nippon Chemiphar Co., Ltd., priority 1994, dated 2004).

Assays:
Type in all cases: in vivo, rat
[1] = test system: male spontaneously hypertensive rats (SHR); experiment: Pharmacological Test-1: blood pressure after oral administration in spontaneously hypertensive rats; conditions: for Blood Pressure (mmHg) 1 hr. / Blood Pressure (mmHg) 3 hrs. / Blood Pressure (mmHg) 6 hrs. / Blood Pressure (mmHg) 9 hrs. / Blood Pressure (mmHg) 12 hrs.: oral; for Blood Pressure (mmHg) 1 hr.: variation of blood pressure 1 hr. after administration; for Blood Pressure (mmHg) 3 hrs.: variation of blood pressure 3 hrs. after administration; for Blood Pressure (mmHg) 6 hrs.: variation of blood pressure 6 hrs. after administration; for lapse of time until approximately maximum blood pressure depression / blood pressure depression, result in words: summary of Table 1; for Blood Pressure (mmHg) 9 hrs.: variation of blood pressure 9 hrs. after administration; for Blood Pressure (mmHg) 12 hrs.: variation of blood pressure 12 hrs. after administration
Description: (§1) This test was performed using male spontaneously hypertensive rats (SHR, 15 weeks old or older, 300 to 400 g). Under halothane anesthesia, the left femoral arteries of the rats were cannulated using a polyethylene cannula. The cannula was connected to a device for blood pressure measurement. Then, the rats were placed in the Bollman-type cages. After one hour, it was confirmed that the blood pressure was kept constant. When the rats waked, they were orally administered with the test compound, and variation of blood pressure after the administration was measured as time passed. The test compound was suspended or dissolved in 1% aqueous methylcellulose solution and administered in an amount of 0.2 mL per 100 g of body weight.

[2] = test system: normal male rats of Wister strain; experiment: Pharmacological Test-4: blood pressure after oral administration in normal rats; conditions: for Blood Pressure (mmHg) 1 hr. / Blood Pressure (mmHg) 3 hrs. / Blood Pressure (mmHg) 6 hrs. / Blood Pressure (mmHg) 9 hrs. / Blood Pressure (mmHg) 12 hrs.: oral; for Blood Pressure (mmHg) 1 hr.: 1 hr. after administration; for Blood Pressure (mmHg) 3 hrs.: 3 hrs. after administration; for Blood Pressure (mmHg) 6 hrs.: 6 hrs. after administration; for Blood Pressure (mmHg) 9 hrs.: 9 hrs. after administration; for Blood Pressure (mmHg) 12 hrs.: 12 hrs. after administration; for effect on normal blood pressure, result in words: summary of Table 4
Description: as §1
(§2) This test was performed by measuring the blood pressure in the same manner as in the above pharmacological test-1 using normal male rats of Wister strain (15 weeks old or older, 300 to 400 g, not-fasted). The test results are set forth in Table 4.The compound of the invention examined in this test was the same as that employed in the pharmacological test-1.

[3] = test system: male DOCA salt hypertensive rats (DOCAR); experiment: Pharmacological Test-2: blood pressure after oral administration in DOCA salt hypertensive rats; conditions: for Blood Pressure (mmHg) 1 hr. / Blood Pressure (mmHg) 3 hrs. / Blood Pressure (mmHg) 6 hrs. / Blood Pressure (mmHg) 9 hrs. / Blood Pressure (mmHg) 12 hrs.: DOCA salt hypertensive rats, oral, 3 mg/kg; for Blood Pressure (mmHg) 1 hr.: 1 hr. after administration; for Blood Pressure (mmHg) 3 hrs.: 3 hrs. after administration; for Blood Pressure (mmHg) 6 hrs.: 6 hrs. after administration; for Blood Pressure (mmHg) 9 hrs.: 9 hrs. after administration; for Blood Pressure (mmHg) 12 hrs.: 12 hrs. after administration; for lapse of time until approximately maximum blood pressure depression: summary of 'Tables 1 and 2' as printed after Table 3
Description: as §1
as §2, with “using” for “using normal”, “male DOCA salt hypertensive” for “male”, “(DOCAR, 15” for “of Wister strain (15”, “2.The” for “4.The”

[4] = test system: male Dahl salt sensitive male rats (DahlSR); experiment: Pharmacological Test-3: blood pressure after oral administration in Dahl salt sensitive rats; conditions: 3 mg/kg; for Blood Pressure (mmHg) 1 hr.: 1 hr. after administration; for Blood Pressure (mmHg) 3 hrs.: 3 hrs. after administration; for Blood Pressure (mmHg) 6 hrs.: 6 hrs. after administration; for Blood Pressure (mmHg) 9 hrs.: 9 hrs. after administration; for Blood Pressure (mmHg) 12 hrs.: 12 hrs. after administration
Description: as §1
This test was performed in the same manner as in the above pharmacological test-1 using male Dahl salt sensitive male rats (DahlSR, 15 weeks old or older, 300 to 400 g, not-fasted). The compound of the invention examined in this test was the same as that employed in the pharmacological test-1.

Row | Structure (SMILES) | Blood Pressure (mmHg) 1 hr. ([1]; 1 mg/kg) [mmHg] | Blood Pressure (mmHg) 3 hrs. ([1]; 1 mg/kg) [mmHg] | Blood Pressure (mmHg) 6 hrs. ([1]; 1 mg/kg) [mmHg] | Blood Pressure (mmHg) 1 hr. ([1]; 3 mg/kg) [mmHg] | Blood Pressure (mmHg) 3 hrs. ([1]; 3 mg/kg) [mmHg] | Blood Pressure (mmHg) 6 hrs. ([1]; 3 mg/kg) [mmHg] | lapse of time until approximately maximum blood pressure depression [1] | blood pressure depression, result in words [1] | Blood Pressure (mmHg) 1 hr. ([2]; 3 mg/kg) [mmHg] | Blood Pressure (mmHg) 3 hrs. ([2]; 3 mg/kg) [mmHg] | Blood Pressure (mmHg) 6 hrs. ([2]; 3 mg/kg) [mmHg] | Blood Pressure (mmHg) 9 hrs. ([2]; 3 mg/kg) [mmHg] | Blood Pressure (mmHg) 12 hrs. ([2]; 3 mg/kg) [mmHg] | effect on normal blood pressure, result in words [2] | Blood Pressure (mmHg) 9 hrs. ([1]; 1 mg/kg) [mmHg] | Blood Pressure (mmHg) 12 hrs. ([1]; 1 mg/kg) [mmHg] | Blood Pressure (mmHg) 9 hrs. ([1]; 3 mg/kg) [mmHg] | Blood Pressure (mmHg) 12 hrs. ([1]; 3 mg/kg) [mmHg] | Blood Pressure (mmHg) 1 hr. [3] [mmHg] | Blood Pressure (mmHg) 3 hrs. [3] [mmHg] | further results
1 | COc1cc2nc(N3CCN(C(=O)c4ccccc4)CC3)nc(N)c2cc1OC.Cl [Comp. [C], 4-amino-2-(4-benzoyl-1-piperazinyl)-6,7-dimethoxyquinazoline hydrochloride] | −36 | −31 | −39 | −64 | −64 | −61 | one hour | – | – | – | – | – | – | – | – | – | – | – | – | – | –
2 | COc1cc2nc(N3CCN(C(=O)c4ccc(O)cc4)CC3)nc(N)c2cc1OC.Cl [Comp. [D], 4-amino-2-[4-(4-hydroxybenzoyl)-1-piperazinyl]-6,7-dimethoxyquinazoline hydrochloride] | 2 | −3 | −6 | −5 | −6 | −8 | – | very little blood pressure depression | – | – | – | – | – | – | – | – | – | – | – | – | –
3 | COc1cc2nc(N3CCN(C(=O)C4COc5ccccc5O4)CC3)nc(N)c2cc1OC (stereo not drawn) [Doxa., doxazosin mesilate] | −19 | −21 | −19 | −35 | −32 | −29 | – | – | −24 | −19 | −20 | −22 | −23 | largely decrease normal blood pressure | – | – | – | – | – | – | Blood Pressure (mmHg) 1 hr. ([1]; 10 mg/kg): −37 mmHg; Blood Pressure (mmHg) 3 hrs. ([1]; 10 mg/kg): −50 mmHg; Blood Pressure (mmHg) 6 hrs. ([1]; 10 mg/kg): −35 mmHg
4 | COc1cc2nc(N3CCN(C(=O)c4cc(C(C)(C)C)c(O)c(C(C)(C)C)c4)CC3)nc(N)c2cc1OC.Cl [Invention, 4-amino-2-[4-(3,5-di-t-butyl-4-hydroxybenzoyl)-1-piperazinyl]-6,7-dimethoxyquinazoline hydrochloride] | −4 | −25 | −41 | −29 | −60 | −75 | six hours | slowly decreases the blood pressure | −5 | −9 | −19 | −21 | −24 | affects the normal blood pressure only slightly | −44 | −39 | −64 | −60 | −15 | −42 | Blood Pressure (mmHg) 6 hrs. [3]: −62 mmHg; Blood Pressure (mmHg) 9 hrs. [3]: −49 mmHg; Blood Pressure (mmHg) 12 hrs. [3]: −37 mmHg; lapse of time until approximately maximum blood pressure depression [3]: six hours; Blood Pressure (mmHg) 1 hr. [4]: −11 mmHg; Blood Pressure (mmHg) 3 hrs. [4]: −25 mmHg; Blood Pressure (mmHg) 6 hrs. [4]: −49 mmHg; Blood Pressure (mmHg) 9 hrs. [4]: −50 mmHg; Blood Pressure (mmHg) 12 hrs. [4]: −52 mmHg; Blood Pressure (mmHg) 1 hr. ([2]; 1 mg/kg): −4 mmHg; Blood Pressure (mmHg) 3 hrs. ([2]; 1 mg/kg): −11 mmHg; Blood Pressure (mmHg) 6 hrs. ([2]; 1 mg/kg): −21 mmHg; Blood Pressure (mmHg) 9 hrs. ([2]; 1 mg/kg): −22 mmHg; Blood Pressure (mmHg) 12 hrs. ([2]; 1 mg/kg): −23 mmHg
5 | COc1cc2nc(N3CCN(C(=O)c4ccco4)CC3)nc(N)c2cc1OC.Cl [Prazo., prazosin hydrochloride] | −35 | −41 | −42 | −57 | −69 | −65 | one hour | – | −44 | −40 | −33 | −33 | −43 | largely decrease normal blood pressure | −41 | −38 | −61 | −60 | −81 | −62 | Blood Pressure (mmHg) 6 hrs. [3]: −69 mmHg; Blood Pressure (mmHg) 9 hrs. [3]: −50 mmHg; Blood Pressure (mmHg) 12 hrs. [3]: −36 mmHg; lapse of time until approximately maximum blood pressure depression [3]: one to two hours; Blood Pressure (mmHg) 1 hr. [4]: −48 mmHg; Blood Pressure (mmHg) 3 hrs. [4]: −41 mmHg; Blood Pressure (mmHg) 6 hrs. [4]: −43 mmHg; Blood Pressure (mmHg) 9 hrs. [4]: −40 mmHg; Blood Pressure (mmHg) 12 hrs. [4]: −36 mmHg; Blood Pressure (mmHg) 1 hr. ([2]; 1 mg/kg): −27 mmHg; Blood Pressure (mmHg) 3 hrs. ([2]; 1 mg/kg): −21 mmHg; Blood Pressure (mmHg) 6 hrs. ([2]; 1 mg/kg): −23 mmHg; Blood Pressure (mmHg) 9 hrs. ([2]; 1 mg/kg): −23 mmHg; Blood Pressure (mmHg) 12 hrs. ([2]; 1 mg/kg): −24 mmHg
